According to US8058295B2, “Cystic fibrosis transmembrane conductance regulator protein inhibitors and uses thereof” (The Regents of the University of California, priority 2002, dated 2011):

Key:
[1] = tested on: Calcium-sensitive Cl^− channels; assay: UTP-stimulated Ca^2+-dependent Cl^− secretion, short-circuit current in human bronchial epithelial cells; type: cell-based
Excerpt: Two non-CFTR Cl^− channels were studied.

[2] = tested on: Volume-sensitive Cl^− channels; assay: Volume-activated Cl^− current, whole-cell patch clamp in FRT cells; type: cell-based, rat; conditions: 5 μM; 250 mosM/kg hypotonic solution
Excerpt: FIG. 4B is a graphical representation of volume-activated Cl^− current (hypotonic 250 mosM/kg H2O) measured in whole-cell patch clamp experiments on FRT cells.

[3] = target: T1, ATP-sensitive K^+ channels (Rattus norvegicus, UniProt Q09429); assay: Membrane potential recording in INS-1 pancreatic β cells (K-ATP channels); type: cell-based
T1 construct: endogenous in cells; host or cells: INS-1 rat pancreatic β cell line
T1 sequence (Q09429 whole entry): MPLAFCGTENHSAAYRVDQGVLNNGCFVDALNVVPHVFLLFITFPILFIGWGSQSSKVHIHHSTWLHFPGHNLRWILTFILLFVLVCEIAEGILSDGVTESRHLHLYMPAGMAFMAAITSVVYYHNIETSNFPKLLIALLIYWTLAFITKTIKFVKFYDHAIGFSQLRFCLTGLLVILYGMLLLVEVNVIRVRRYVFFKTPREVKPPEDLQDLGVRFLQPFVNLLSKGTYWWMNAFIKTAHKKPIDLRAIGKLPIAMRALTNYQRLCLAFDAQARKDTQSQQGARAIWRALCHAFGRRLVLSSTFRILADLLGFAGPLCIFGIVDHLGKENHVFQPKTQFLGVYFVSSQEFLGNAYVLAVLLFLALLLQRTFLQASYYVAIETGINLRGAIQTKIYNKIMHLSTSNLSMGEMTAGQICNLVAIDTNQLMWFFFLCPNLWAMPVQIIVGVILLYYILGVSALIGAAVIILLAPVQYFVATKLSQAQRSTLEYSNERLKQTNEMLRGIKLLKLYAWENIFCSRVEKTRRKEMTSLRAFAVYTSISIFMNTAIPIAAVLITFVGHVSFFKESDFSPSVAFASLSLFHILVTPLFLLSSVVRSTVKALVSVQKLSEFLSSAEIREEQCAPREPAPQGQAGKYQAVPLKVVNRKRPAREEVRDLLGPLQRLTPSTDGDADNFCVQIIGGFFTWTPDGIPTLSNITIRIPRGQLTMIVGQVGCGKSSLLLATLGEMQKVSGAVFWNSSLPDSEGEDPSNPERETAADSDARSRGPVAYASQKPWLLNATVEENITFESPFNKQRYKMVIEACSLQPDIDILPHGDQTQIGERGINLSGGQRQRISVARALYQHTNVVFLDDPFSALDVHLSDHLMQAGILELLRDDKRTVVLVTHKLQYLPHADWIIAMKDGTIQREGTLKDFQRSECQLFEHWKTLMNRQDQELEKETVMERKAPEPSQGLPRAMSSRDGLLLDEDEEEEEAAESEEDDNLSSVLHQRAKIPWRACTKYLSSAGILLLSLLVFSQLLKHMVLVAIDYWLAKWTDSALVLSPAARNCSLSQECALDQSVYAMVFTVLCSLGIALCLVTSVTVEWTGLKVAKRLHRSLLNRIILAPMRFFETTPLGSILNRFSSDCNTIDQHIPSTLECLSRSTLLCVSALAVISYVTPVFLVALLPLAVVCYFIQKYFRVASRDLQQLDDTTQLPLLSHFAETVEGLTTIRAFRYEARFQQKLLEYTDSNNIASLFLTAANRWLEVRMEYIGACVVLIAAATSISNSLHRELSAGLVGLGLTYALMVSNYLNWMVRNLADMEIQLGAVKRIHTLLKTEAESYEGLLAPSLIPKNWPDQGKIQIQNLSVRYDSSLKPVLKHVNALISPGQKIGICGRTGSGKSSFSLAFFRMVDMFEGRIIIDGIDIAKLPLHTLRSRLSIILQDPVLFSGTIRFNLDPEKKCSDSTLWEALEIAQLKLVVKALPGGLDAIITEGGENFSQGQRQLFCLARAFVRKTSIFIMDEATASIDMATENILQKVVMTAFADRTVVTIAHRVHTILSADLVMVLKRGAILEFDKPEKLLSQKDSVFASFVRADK
T1 sequence (P70673 whole entry partner): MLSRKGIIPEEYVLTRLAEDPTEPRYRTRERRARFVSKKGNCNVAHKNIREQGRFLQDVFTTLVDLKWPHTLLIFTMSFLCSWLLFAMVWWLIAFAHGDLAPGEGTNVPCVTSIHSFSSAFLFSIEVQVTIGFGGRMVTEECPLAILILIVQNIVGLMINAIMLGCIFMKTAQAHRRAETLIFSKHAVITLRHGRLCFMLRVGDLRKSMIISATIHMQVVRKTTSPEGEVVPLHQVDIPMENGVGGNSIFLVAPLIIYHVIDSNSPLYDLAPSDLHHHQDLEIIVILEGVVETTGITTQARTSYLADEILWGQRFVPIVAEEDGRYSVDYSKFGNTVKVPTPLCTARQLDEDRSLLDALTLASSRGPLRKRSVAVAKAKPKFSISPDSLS

[4] = target: T2, water channel (AQP1) (Homo sapiens, UniProt P29972); assay: Water channel block; conditions: 5 μM
T2 sequence (P29972 1-269): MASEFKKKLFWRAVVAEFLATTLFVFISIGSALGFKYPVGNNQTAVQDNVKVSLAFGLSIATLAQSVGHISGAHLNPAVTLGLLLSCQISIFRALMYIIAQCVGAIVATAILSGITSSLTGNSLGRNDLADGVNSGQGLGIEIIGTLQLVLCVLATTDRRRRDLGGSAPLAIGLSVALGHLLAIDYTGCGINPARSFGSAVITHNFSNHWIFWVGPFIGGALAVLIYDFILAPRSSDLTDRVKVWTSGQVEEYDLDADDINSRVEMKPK

[5] = target: T3, Cl^−/HCO3^− exchanger (AE1) (Homo sapiens, UniProt P02730); assay: Cl^−/HCO3^− exchanger block; conditions: 5 μM
T3 sequence (P02730 1-911): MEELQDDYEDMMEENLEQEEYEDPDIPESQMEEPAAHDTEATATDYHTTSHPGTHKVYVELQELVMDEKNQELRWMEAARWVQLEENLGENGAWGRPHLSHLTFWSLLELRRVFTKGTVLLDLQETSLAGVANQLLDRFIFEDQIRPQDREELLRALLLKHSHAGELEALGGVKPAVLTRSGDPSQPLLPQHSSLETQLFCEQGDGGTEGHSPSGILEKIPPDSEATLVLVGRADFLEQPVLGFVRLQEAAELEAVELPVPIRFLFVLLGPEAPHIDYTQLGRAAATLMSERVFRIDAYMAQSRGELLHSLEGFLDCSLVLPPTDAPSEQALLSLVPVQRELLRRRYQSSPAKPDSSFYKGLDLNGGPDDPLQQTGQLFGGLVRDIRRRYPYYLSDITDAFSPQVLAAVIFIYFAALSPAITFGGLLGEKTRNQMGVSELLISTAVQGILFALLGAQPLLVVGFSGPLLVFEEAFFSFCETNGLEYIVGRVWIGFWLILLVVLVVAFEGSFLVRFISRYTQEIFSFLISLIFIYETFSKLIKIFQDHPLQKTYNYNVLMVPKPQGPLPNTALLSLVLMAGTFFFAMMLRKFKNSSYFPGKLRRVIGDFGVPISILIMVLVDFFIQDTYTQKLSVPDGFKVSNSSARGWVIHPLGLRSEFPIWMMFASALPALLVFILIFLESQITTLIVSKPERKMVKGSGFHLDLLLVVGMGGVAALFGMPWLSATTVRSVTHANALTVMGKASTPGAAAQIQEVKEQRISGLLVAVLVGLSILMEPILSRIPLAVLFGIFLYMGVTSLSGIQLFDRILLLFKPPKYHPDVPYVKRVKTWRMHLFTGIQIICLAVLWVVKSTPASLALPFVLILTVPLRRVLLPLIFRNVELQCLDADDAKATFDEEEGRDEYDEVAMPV

[6] = tested on: cellular cAMP production; assay: Intracellular cAMP assay in FRT cells; type: cell-based, rat
[7] = tested on: intestinal fluid absorption; assay: Fluid absorption in mouse closed intestinal loops; type: in vivo, mice; conditions: 20 μg intraperitoneal, measured at 30 min
Experimental: FIG. 10 is a set of graphs providing the results of characterization of the mouse closed-intestinal loop model. Panel A (FIG. 10A): Intestinal loops were injected with 200 μL buffer and loop weight measured at indicated times (mean±SEM, 4 mice per time point). […] Inset (top) Chemical structure of CFTRinh-172. Panel B (FIG. 10B): Time course of cholera toxin-induced fluid secretion in mouse closed-loop model. […] Data for injected loops (1 μg cholera toxin/loop) as mean±SEM (4-6 mice).
First, the kinetics of intestinal loop fluid absorption and secretion were determined to characterize the mouse model. To study absorption, loop fluid content was measured at specified times after injection of 200 μL of PBS into individual loops. […] To study secretion, intestinal loops were injected with cholera toxin (1 μg in 0.1 mL PBS).

[8] = target: T4, CFTR Cl^− channel (Rattus norvegicus, UniProt P34158); assay: Short-circuit current in isolated rat colonic mucosa; conditions: 5 μM to the mucosal solution alone, after amiloride and forskolin 20 μM
T4 construct: from tissue; host or cells: rat colon mucosa
T4 sequence (P34158 whole entry): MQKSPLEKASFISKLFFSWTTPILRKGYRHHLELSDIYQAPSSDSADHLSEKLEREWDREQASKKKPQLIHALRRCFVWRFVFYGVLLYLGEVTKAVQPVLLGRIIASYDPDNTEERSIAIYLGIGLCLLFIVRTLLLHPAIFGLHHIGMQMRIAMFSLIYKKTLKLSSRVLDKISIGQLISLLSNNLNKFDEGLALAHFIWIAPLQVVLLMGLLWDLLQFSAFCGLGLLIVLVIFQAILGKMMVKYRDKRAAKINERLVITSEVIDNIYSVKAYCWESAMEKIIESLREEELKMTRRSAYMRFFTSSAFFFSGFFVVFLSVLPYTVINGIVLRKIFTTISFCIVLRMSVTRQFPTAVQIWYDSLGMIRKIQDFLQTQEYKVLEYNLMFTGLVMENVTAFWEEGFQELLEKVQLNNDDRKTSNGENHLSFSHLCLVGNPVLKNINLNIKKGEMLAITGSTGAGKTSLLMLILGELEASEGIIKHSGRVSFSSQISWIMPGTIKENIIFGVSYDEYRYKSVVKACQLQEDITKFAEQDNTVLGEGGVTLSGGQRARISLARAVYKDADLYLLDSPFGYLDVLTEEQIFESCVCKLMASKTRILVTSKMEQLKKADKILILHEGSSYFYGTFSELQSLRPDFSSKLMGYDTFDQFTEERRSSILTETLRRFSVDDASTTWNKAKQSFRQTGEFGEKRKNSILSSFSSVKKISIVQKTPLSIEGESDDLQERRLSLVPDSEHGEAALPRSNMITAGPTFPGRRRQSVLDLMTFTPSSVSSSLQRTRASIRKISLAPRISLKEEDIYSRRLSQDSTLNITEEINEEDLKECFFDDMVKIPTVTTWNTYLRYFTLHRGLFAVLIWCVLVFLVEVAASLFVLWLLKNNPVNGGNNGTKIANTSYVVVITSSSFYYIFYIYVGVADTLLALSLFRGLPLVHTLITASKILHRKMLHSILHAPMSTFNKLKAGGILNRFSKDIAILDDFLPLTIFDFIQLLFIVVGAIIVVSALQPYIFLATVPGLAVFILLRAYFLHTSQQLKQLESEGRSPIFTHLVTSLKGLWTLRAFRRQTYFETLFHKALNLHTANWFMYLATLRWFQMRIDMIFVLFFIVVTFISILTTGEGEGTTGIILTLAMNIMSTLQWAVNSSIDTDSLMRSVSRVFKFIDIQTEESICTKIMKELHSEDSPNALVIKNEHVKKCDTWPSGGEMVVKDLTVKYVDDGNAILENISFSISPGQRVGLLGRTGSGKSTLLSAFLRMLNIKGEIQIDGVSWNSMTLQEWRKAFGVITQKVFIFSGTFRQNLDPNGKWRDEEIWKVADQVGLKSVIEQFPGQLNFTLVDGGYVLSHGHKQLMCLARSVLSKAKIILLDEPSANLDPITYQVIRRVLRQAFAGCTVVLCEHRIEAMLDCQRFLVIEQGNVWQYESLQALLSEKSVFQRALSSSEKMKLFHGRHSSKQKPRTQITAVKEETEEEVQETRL

[9] = Tissue distribution and elimination in mice after intravenous bolus; type: in vivo
Experimental: A bolus of ^14C-CFTRinh-172 (2 μCi) was administered intravenously over 1 min in mice (male CD1 mice, 30-35 grams) by tail vein. Mice were sacrificed at 5, 30, 120 and 240 min. Organs were removed, weighed and homogenized in distilled water (10-50 vol %). Radioactivity was determined by scintillation counting of the homogenates (25-50 μL) and expressed as total ^14C-radioactivity per organ (or per gram tissue for skeletal muscle). At the same time blood, urine and bile (from gallbladder or duodenum) were collected and ^14C-radioactivity was measured and expressed per mL of fluid. Elimination studies were done by collections of urine and stool over the first 24 hr after ^14C-CFTRinh-172 administration. Tissue distribution studies were also done on rats prepared as for pharmacokinetic studies.

[10] = target: CFTR (Homo sapiens, UniProt P13569)
CFTR, sequence (P13569 whole entry): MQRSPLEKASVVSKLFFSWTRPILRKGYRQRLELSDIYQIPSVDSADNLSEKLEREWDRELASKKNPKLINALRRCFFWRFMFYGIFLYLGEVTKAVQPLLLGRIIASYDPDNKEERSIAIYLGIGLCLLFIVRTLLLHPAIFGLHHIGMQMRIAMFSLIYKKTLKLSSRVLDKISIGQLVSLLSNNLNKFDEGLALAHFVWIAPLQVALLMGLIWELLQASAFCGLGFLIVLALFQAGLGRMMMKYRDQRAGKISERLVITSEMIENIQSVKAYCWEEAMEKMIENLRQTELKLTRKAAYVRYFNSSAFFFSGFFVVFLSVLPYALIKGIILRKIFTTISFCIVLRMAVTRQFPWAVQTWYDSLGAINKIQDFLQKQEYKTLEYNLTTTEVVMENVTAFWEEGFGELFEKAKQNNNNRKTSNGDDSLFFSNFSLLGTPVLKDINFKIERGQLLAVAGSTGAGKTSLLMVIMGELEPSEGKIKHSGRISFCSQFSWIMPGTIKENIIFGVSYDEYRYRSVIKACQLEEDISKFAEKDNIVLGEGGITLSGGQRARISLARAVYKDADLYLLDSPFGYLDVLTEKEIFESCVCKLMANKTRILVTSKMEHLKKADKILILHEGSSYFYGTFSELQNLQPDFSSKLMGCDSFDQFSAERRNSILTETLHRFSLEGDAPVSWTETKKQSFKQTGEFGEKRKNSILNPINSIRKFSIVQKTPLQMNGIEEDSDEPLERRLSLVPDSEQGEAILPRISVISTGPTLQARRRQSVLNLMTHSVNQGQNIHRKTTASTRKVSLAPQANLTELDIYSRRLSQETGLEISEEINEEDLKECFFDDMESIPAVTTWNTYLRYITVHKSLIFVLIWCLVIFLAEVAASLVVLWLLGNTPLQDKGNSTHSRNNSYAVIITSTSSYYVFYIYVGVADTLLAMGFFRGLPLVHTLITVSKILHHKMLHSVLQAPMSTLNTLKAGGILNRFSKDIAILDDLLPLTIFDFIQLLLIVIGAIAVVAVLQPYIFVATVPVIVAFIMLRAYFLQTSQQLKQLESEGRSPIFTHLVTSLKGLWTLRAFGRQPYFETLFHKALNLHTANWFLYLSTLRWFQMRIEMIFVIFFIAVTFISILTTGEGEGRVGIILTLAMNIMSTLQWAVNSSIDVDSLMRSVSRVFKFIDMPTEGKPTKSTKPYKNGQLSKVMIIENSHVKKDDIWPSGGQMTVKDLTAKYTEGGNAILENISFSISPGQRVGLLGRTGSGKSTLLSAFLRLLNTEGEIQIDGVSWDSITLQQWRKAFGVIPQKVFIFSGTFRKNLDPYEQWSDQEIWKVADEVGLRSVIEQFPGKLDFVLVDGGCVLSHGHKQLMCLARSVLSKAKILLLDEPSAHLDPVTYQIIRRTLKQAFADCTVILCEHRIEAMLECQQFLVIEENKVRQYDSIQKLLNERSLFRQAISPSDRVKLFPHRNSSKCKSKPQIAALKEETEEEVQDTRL

[11] = target: wildtype CFTR (Homo sapiens, UniProt P13569); assay: YFP fluorescence assay of CFTR-mediated I^− transport in FRT cells; type: cell-based; design: expressed in transfected cells; host or cells: Fischer rat thyroid (FRT) cells
wildtype CFTR, sequence (P13569 whole entry): as above

O=C(O)c1ccc(/C=C2\SC(=S)N(c3cccc(C(F)(F)F)c3)C2=O)cc1 [CFTRinh-172, 3-[(3-trifluoromethyl)phenyl]-5-[(4-carboxyphenyl)methylene]-2-thioxo-4-thiazolidinone]
inhibition of Ca^2+ activated secretion ([1]; 5 μM, UTP 100 μM): did not inhibit | maximal UTP-dependent short-circuit current ([1]; in presence of 5 μM inhibitor (SE, n=4)): 10.0±0.2 μA/cm^2 | block of volume-activated Cl^− currents [2]: did not block | effect on membrane potential ([3]; 5 μM): small hyperpolarization | effect on membrane potential ([3]; 2 and 5 μM): did not depolarize membrane potential | block of water channel (AQP1) [4]: did not block | block of Cl^−/HCO3^− exchanger (AE1) [5]: did not block | effect on cellular cAMP production ([6]; 5 μM): did not affect | cAMP content ([6]; 30 min after 20 μM forskolin, + inhibitor (n=3)): 1140±50 fmol/well | rate of fluid absorption [7]: did not alter the rate of fluid absorption | reduction of short-circuit current [8]: > 80% | ratio of ^14C radioactivity in urine-to-blood ([9]; mice): 5-7 | average urine radioactivity ([9]; mice, first 2 hours after infusion): 4.2±1.2×10^5 cpm/mL | ^14C radioactivity in brain, heart, skeletal muscle or testes ([9]; mice, i.v. bolus): Little radioactivity | organ distribution of ^14C radioactivity ([9]; mice, later times (30-240 min)): accumulated in the intestine | excreted radioactivity found in the urine ([9]; mice, urine and stool over first 24 hr): 93±3% | organ distribution of ^14C radioactivity ([9]; mice, within 5 min after i.v. infusion): primarily in liver and kidney | concentration of ^14C radioactivity in bile vs. blood ([9]; mouse, in vivo): ~9 fold | accumulation in other vital organs including heart, lung, skeletal muscle and testes ([9]; rodents): little CFTRinh-172 accumulation | blood-brain barrier penetration ([9]; rodents): did not significantly cross the blood-brain barrier | IC50 [10]: 200 to 500 nM | Kd [10]: ~300 nM | Hill coefficient ([10]; dose-inhibition of short-circuit current): ~1 | inhibition of CFTR activation by other agonists ([11]; 5 μM inhibitor, genistein, CPT-cAMP, CPX, 8-MPO, UCCF-029, UCCF-853 (all 50 μM)): effectively inhibited | t1/2 of inhibition ([11]; after addition of 2 μM): 4 min | time to complete inhibition ([11]; after addition of 2 μM): ~10 min | t1/2 of inhibition reversal after washout ([11]; washout of 1 μM): ~5 min
